Experiments:
human CYP2D6 = human CYP2D6 (Homo sapiens, UniProt P10635); assay: Cytochrome P450 2D6 inhibition (dextromethorphan O-demethylation, pooled human hepatic microsome)
[1] = biological target: human opioid receptor-like (ORL-1) (Homo sapiens, UniProt P41146); assay: In vitro ORL-1 receptor [35S]GTPγS functional assay; format: biochemical
Sequence of human opioid receptor-like (ORL-1) (P41146 whole entry): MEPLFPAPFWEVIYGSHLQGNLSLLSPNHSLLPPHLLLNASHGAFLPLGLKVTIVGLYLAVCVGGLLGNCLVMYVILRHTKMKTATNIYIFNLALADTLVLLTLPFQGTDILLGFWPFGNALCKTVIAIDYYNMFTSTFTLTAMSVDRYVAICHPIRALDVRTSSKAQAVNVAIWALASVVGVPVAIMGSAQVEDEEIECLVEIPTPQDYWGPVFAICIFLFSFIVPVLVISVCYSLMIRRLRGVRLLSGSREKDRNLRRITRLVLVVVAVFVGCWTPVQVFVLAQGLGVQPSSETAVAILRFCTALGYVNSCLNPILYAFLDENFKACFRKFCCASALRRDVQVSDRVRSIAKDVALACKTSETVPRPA

Sequence of human CYP2D6 (P10635 whole entry): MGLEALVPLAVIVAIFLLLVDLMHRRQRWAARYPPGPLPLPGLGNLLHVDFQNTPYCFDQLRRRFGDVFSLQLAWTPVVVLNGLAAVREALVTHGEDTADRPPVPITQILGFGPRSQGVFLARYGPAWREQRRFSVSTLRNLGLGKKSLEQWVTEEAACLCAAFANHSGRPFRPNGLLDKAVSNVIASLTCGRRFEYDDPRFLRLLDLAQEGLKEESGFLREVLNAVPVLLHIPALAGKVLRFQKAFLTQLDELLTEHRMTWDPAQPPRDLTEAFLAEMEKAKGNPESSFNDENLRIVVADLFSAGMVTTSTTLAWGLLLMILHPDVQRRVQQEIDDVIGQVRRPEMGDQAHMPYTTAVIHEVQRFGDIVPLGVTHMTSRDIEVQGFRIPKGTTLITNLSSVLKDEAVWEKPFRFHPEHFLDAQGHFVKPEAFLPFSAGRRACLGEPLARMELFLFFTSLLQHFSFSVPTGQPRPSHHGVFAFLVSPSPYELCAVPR

Compound	IC50 (human CYP2D6) [µM]	EC50 [1] [µM]
O=c1[nH]cnn1-c1nc2ccccc2n([C@H]2C[C@H]3CCC[C@@H](C2)N3[C@H]2C[C@@H]3CCC[C@@H](C3)C2)c1=O [Compound B23a, 1-((1R,3r,3′R,5S,5′S)-[3,9′-bi(9′-azabicyclo[3.3.1]nonan)]-3′-yl)-3-(5-oxo-4,5-dihydro-1H-1,2,4-triazol-1-yl)quinoxalin-2(1H)-one]	17.8	> 20
O=c1cnn(-c2nc3ccccc3n([C@H]3C[C@H]4CCC[C@@H](C3)N4C3CCCCCCC3)c2=O)c(=O)[nH]1 [Compound H9c, 2-(4-((1R,3r,5S)-9-cyclooctyl-9-azabicyclo[3.3.1]nonan-3-yl)-3-oxo-3,4-dihydroquinoxalin-2-yl)-1,2,4-triazine-3,5(2H,4H)-dione]	> 20	0.376 ± 0.016
O=c1cnn(-c2nc3ccccc3n([C@H]3C[C@H]4CCC[C@@H](C3)N4[C@@H]3C[C@@H]4CCCC[C@@H](C4)C3)c2=O)c(=O)[nH]1 [Compound O9b, 2-(4-((1R,3R,5S)-9-((1R,6S,8s)-bicyclo[4.3.1]decan-8-yl)-9-azabicyclo[3.3.1]nonan-3-yl)-3-oxo-3,4-dihydroquinoxalin-2-yl)-1,2,4-triazine-3,5(2H,4H)-dione]	> 20	> 20
O=c1ccn(-c2nc3ccccc3n([C@H]3C[C@H]4CCC[C@@H](C3)N4[C@@H]3C[C@@H]4CCCC[C@@H](C4)C3)c2=O)c(=O)[nH]1 [Compound O13b, 1-(4-((1R,3R,5S)-9-((1R,6S,8s)-bicyclo[4.3.1]decan-8-yl)-9-azabicyclo[3.3.1]nonan-3-yl)-3-oxo-3,4-dihydroquinoxalin-2-yl)pyrimidine-2,4(1H,3H)-dione]	> 20	> 20
CC1(C)C(=O)NC(=O)N1c1nc2ccccc2n([C@H]2C[C@H]3CCC[C@@H](C2)N3[C@@H]2C[C@@H]3CCCC[C@@H](C3)C2)c1=O [Compound O19a, 1-(4-((1R,3R,5S)-9-((1R,6S,8s)-bicyclo[4.3.1]decan-8-yl)-9-azabicyclo[3.3.1]nonan-3-yl)-3-oxo-3,4-dihydroquinoxalin-2-yl)-5,5-dimethylimidazolidine-2,4-dione]	> 20	> 20
Cc1nn(-c2nc3ccccc3n([C@H]3C[C@H]4CCC[C@@H](C3)N4[C@H]3C[C@@H]4CCC[C@@H](C4)C3)c2=O)c(=S)[nH]c1=O [Compound U001, 1-((1R,1′R,3r,3′R,5S,5′S)-[3,9′-bi(9′-azabicyclo[3.3.1]nonan)]-3′-yl)-3-(6-methyl-5-oxo-3-thioxo-4,5-dihydro-1,2,4-triazin-2(3H)-yl)quinoxalin-2(1H)-one]	> 20	> 20
O=c1ncc(-c2nc3ccccc3n([C@H]3C[C@H]4CCC[C@@H](C3)N4[C@H]3C[C@@H]4CCC[C@@H](C4)C3)c2=O)c[nH]1 [Compound U048, 1-((1R,1′R,3r,3′R,5S,5′S)-[3,9′-bi(9′-azabicyclo[3.3.1]nonan)]-3′-yl)-3-(2-oxo-1,2-dihydropyrimidin-5-yl)quinoxalin-2(1H)-one]	> 20	> 20
O=C(O)CCn1cccc(-c2nc3ccccc3n([C@H]3C[C@H]4CCC[C@@H](C3)N4[C@H]3C[C@@H]4CCC[C@@H](C4)C3)c2=O)c1=O [Compound U057, 3-(3-(4-((1R,1′R,3r,3′R,5S,5′S)-[3,9′-bi(9′-azabicyclo[3.3.1]nonan)]-3′-yl)-3-oxo-3,4-dihydroquinoxalin-2-yl)-2-oxopyridin-1(2H)-yl)propanoic acid]	> 20	> 20
Nc1ccn(-c2nc3ccccc3n([C@H]3C[C@H]4CCC[C@@H](C3)N4[C@@H]3C[C@@H]4CCCC[C@@H](C4)C3)c2=O)c(=O)n1 [Compound U068, 3-(4-amino-2-oxopyrimidin-1(2H)-yl)-1-((1R,3R,5S)-9-((1R,6S,8s)-bicyclo[4.3.1]decan-8-yl)-9-azabicyclo[3.3.1]nonan-3-yl)quinoxalin-2(1H)-one]	> 20	> 20

Reference: patent publication US9085561B2, “Cyclic urea- or lactam-substituted quinoxaline-type piperidines as ORL-1 modulators” (priority 2012, dated 2015)
